Values of other authors, collected in patent US20240423896A1, “METHOD FOR IMPROVING THE TACTILE SENSATION OF DYED KERATINOUS FIBRES, IN PARTICULAR HUMAN HAIR” (HENKEL AG & CO. KGAA, priority 2021, published 2024).

Conditions: 25° C.

SMILES | solubility in water | other results
O=C([O-])C1=NN(c2ccc(S(=O)(=O)[O-])cc2)C(=O)C1N=Nc1ccc(S(=O)(=O)[O-])cc1.[Na+].[Na+].[Na+] (centres unmarked) [Acid Yellow 23, trisodium salt of 4,5-dihydro-5-oxo-1-(4-sulfophenyl)-4-((4-sulfophenyl)azo)-1H-pyrazole-3-carboxylic acid] | – | solubility in water (in words): readily soluble in water
CCN(Cc1cccc(S(=O)(=O)[O-])c1)c1ccc(C(=C2C=CC(=[N+](CC)Cc3cccc(S(=O)(=O)[O-])c3)C=C2)c2ccccc2S(=O)(=O)[O-])cc1.[Na+].[Na+] [Acid Blue 9, disodium salt of 2-({4-[N-ethyl(3-sulfonatobenzyl]amino]phenyl}{4-(N-ethyl(3-sulfonatobenzyl)imino]-2,5-cyclohexadien-1-ylidene}methyl)-benzenesulfonate] | – | water solubility: more than 20 wt. %
O=S(=O)([O-])c1ccc(N=Nc2c(O)ccc3ccccc23)cc1.[Na+] [Acid Orange 7, sodium salt of 4-[(2-hydroxy-1-naphthyl)azo]benzene sulphonate] | more than 7 g/L | –
Nc1cc(S(=O)(=O)[O-])cc2cc(S(=O)(=O)[O-])c(N=Nc3ccccc3)c(O)c12.[Na+].[Na+] [Acid Red 33, disodium salt of 5-amino-4-hydroxy-3-(phenylazo)-naphthalene-2,7-disulfonate] | 2500 µg/mL | –
O=C([O-])c1c(Cl)c(Cl)c(Cl)c(Cl)c1-c1c2cc(Br)c(=O)c(Br)c-2oc2c(Br)c([O-])c(Br)cc12.[Na+].[Na+] [Acid Red 92, disodium salt of 3,4,5,6-tetrachloro-2-(1,4,5,8-tetrabromo-6-hydroxy-3-oxanthene-9-yl) benzoic acid] | greater than 10 g/L | –
